Reference: PMC12300041, “Tricyclic Isatin Derivatives as Anti-Inflammatory Compounds with High Kinase Binding Affinity” (Molecules, 2025)

Experiments:
Assay in all cases: KINOMEscan
Assay type in all cases: binding
WNK1 = molecular target: T1, WNK1 (Homo sapiens, UniProt Q9H4A3)
T1 construct: purchased Eurofins DiscoverX KINOMEscan
Method in brief: (§1)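 Read-out is qPCR of kinase not bound to the test compound, recovered by capture on an immobilized affinity ligand after a 1 h room-temperature binding step. Dissociation constants came from 12 half-log dilutions starting at 33 μM.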

TSSK1B = molecular target: T2, TSSK1B (Homo sapiens, UniProt Q9BXA7)
T2 construct: purchased Eurofins DiscoverX KINOMEscan
Method in brief: (§2)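 Binding reactions proceed for 1 h at room temperature. Kinase not bound by compound is captured on immobilized affinity ligand and quantified by qPCR; Kd is fitted over 12 half-log concentrations, top 33 μM.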

NEK7 = molecular target: T3, NEK7 (Homo sapiens, UniProt Q8TDX7)
T3 construct: purchased Eurofins DiscoverX KINOMEscan
Method in brief: as §2

DCAMKL1 = molecular target: T4, DCAMKL1 (Homo sapiens, UniProt O15075)
T4 construct: purchased Eurofins DiscoverX KINOMEscan
Method in brief: as §2

EPHB3 = molecular target: T5, EPHB3 (Homo sapiens, UniProt P54753)
T5 construct: purchased Eurofins DiscoverX KINOMEscan
Method in brief: as §2

MKK7 = molecular target: T6, MKK7 (Homo sapiens, UniProt O14733)
T6 construct: purchased Eurofins DiscoverX KINOMEscan
Method in brief: as §2

ULK2 = molecular target: T7, ULK2 (Homo sapiens, UniProt Q8IYT8)
T7 construct: purchased Eurofins DiscoverX KINOMEscan
Method in brief: as §2

IKK-β = molecular target: T8, IKK-β (Homo sapiens, UniProt O14920)
T8 construct: purchased Eurofins DiscoverX KINOMEscan
Method in brief: as §1

NEK6 = molecular target: T9, NEK6 (Homo sapiens, UniProt Q9HC98)
T9 construct: purchased Eurofins DiscoverX KINOMEscan
Method in brief: as §2

TEC = molecular target: T10, TEC (Homo sapiens, UniProt P42680)
T10 construct: purchased Eurofins DiscoverX KINOMEscan
Method in brief: as §2

ACVR2B = molecular target: T11, ACVR2B (Homo sapiens, UniProt Q13705)
T11 construct: purchased Eurofins DiscoverX KINOMEscan
Method in brief: as §1

JAK2 (JH1domain-cat.) = molecular target: T12, JAK2 (JH1domain-cat.) (Homo sapiens, UniProt O60674)
T12 construct: JAK2 (JH1domain-cat.); purchased Eurofins DiscoverX KINOMEscan
Method in brief: as §1

ERN1 = molecular target: T13, ERN1 (Homo sapiens, UniProt O75460)
T13 construct: purchased Eurofins DiscoverX KINOMEscan
Method in brief: as §2

MAP3K19 = molecular target: T14, MAP3K19 (Homo sapiens, UniProt Q56UN5)
T14 construct: purchased Eurofins DiscoverX KINOMEscan
Method in brief: as §2

CDK3 = molecular target: T15, CDK3 (Homo sapiens, UniProt Q00526)
T15 construct: purchased Eurofins DiscoverX KINOMEscan
Method in brief: as §2

MTOR = molecular target: T16, MTOR (Homo sapiens, UniProt P42345)
T16 construct: purchased Eurofins DiscoverX KINOMEscan
Method in brief: as §1

CAMKK1 = molecular target: T17, CAMKK1 (Homo sapiens, UniProt Q8N5S9)
T17 construct: purchased Eurofins DiscoverX KINOMEscan
Method in brief: as §2

FLT3 (R834Q) = molecular target: T18, FLT3 (R834Q) (Homo sapiens, UniProt P36888, R834Q)
T18 construct: purchased Eurofins DiscoverX KINOMEscan
Method in brief: as §2

JNK3 = molecular target: T19, JNK3 (Homo sapiens, UniProt P53779)
T19 construct: purchased Eurofins DiscoverX KINOMEscan
Method in brief: as §2

MAP4K4 = molecular target: T20, MAP4K4 (Homo sapiens, UniProt O95819)
T20 construct: purchased Eurofins DiscoverX KINOMEscan
Method in brief: as §2

MAP4K3 = molecular target: T21, MAP4K3 (Homo sapiens, UniProt Q8IVH8)
T21 construct: purchased Eurofins DiscoverX KINOMEscan
Method in brief: as §2

KIT-autoinhibited = molecular target: T22, KIT-autoinhibited (Homo sapiens, UniProt P10721)
T22 construct: purchased Eurofins DiscoverX KINOMEscan
Method in brief: as §1

PIK3CA (E545A) = molecular target: T23, PIK3CA (E545A) (Homo sapiens, UniProt P42336, E545A)
T23 construct: purchased Eurofins DiscoverX KINOMEscan
Method in brief: as §2

PAK6 = molecular target: T24, PAK6 (Homo sapiens, UniProt Q9NQU5)
T24 construct: purchased Eurofins DiscoverX KINOMEscan
Method in brief: as §1

CSF1R-autoinhibited = molecular target: T25, CSF1R-autoinhibited (Homo sapiens, UniProt P07333)
T25 construct: purchased Eurofins DiscoverX KINOMEscan
Method in brief: as §2

ZAK = molecular target: T26, ZAK (Homo sapiens, UniProt Q9NYL2)
T26 construct: purchased Eurofins DiscoverX KINOMEscan
Method in brief: as §2

AKT3 = molecular target: T27, AKT3 (Homo sapiens, UniProt Q9Y243)
T27 construct: purchased Eurofins DiscoverX KINOMEscan
Method in brief: as §2

ABL1 (Q252H)-non-P = molecular target: T28, ABL1 (Q252H)-non-P (Homo sapiens, UniProt P00519, Q252H)
T28 construct: purchased Eurofins DiscoverX KINOMEscan
Method in brief: as §2

SLK = molecular target: T29, SLK (Homo sapiens, UniProt Q9H2G2)
T29 construct: purchased Eurofins DiscoverX KINOMEscan
Method in brief: as §2

DCAMKL3 = molecular target: T30, DCAMKL3 (Homo sapiens, UniProt Q9C098)
T30 construct: purchased Eurofins DiscoverX KINOMEscan
Method in brief: as §2

BMPR1A = molecular target: T31, BMPR1A (Homo sapiens, UniProt P36894)
T31 construct: purchased Eurofins DiscoverX KINOMEscan
Method in brief: as §2

PIK3CA = molecular target: T32, PIK3CA (Homo sapiens, UniProt P42336)
T32 construct: purchased Eurofins DiscoverX KINOMEscan
Method in brief: as §2

DDR2 = molecular target: T33, DDR2 (Homo sapiens, UniProt Q16832)
T33 construct: purchased Eurofins DiscoverX KINOMEscan
Method in brief: as §2

CDKL1 = molecular target: T34, CDKL1 (Homo sapiens, UniProt Q00532)
T34 construct: purchased Eurofins DiscoverX KINOMEscan
Method in brief: as §2

ARK5 = molecular target: T35, ARK5 (Homo sapiens, UniProt O60285)
T35 construct: purchased Eurofins DiscoverX KINOMEscan
Method in brief: as §2

[1] = molecular target: T36, RSK4 (Kin. Dom.2-C-term.) (Homo sapiens, UniProt Q9UK32)
T36 construct: RSK4 (Kin. Dom.2-C-term.); purchased Eurofins DiscoverX KINOMEscan
Method in brief: as §2

NDR2 = molecular target: T37, NDR2 (Homo sapiens, UniProt Q9Y2H1)
T37 construct: purchased Eurofins DiscoverX KINOMEscan
Method in brief: as §1

PRKCD = molecular target: T38, PRKCD (Homo sapiens, UniProt Q05655)
T38 construct: purchased Eurofins DiscoverX KINOMEscan
Method in brief: as §2

PRKCH = molecular target: T39, PRKCH (Homo sapiens, UniProt P24723)
T39 construct: purchased Eurofins DiscoverX KINOMEscan
Method in brief: as §1

T6 sequence (O14733 whole entry): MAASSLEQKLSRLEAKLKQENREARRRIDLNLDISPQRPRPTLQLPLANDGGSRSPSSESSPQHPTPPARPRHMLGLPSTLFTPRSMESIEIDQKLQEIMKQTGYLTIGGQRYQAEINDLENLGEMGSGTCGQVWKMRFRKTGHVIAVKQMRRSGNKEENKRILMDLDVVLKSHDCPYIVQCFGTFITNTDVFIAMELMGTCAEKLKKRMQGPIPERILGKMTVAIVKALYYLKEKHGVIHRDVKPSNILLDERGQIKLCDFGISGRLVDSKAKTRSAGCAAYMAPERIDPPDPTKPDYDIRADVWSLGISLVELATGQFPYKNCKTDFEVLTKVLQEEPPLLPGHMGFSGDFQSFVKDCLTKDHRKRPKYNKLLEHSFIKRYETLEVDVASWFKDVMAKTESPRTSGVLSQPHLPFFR
T36 sequence (Q9UK32 401-745 limits assumed): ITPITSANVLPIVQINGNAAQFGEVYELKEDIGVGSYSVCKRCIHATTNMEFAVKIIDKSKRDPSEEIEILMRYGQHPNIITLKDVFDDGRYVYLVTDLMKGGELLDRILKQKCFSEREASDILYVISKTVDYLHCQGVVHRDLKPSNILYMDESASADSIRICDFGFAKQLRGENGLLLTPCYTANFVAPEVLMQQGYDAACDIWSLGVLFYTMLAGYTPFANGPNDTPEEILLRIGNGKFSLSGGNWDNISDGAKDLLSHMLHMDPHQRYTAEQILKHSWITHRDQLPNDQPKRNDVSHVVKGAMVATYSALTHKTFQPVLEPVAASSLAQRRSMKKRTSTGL
T33 sequence (Q16832 22-855): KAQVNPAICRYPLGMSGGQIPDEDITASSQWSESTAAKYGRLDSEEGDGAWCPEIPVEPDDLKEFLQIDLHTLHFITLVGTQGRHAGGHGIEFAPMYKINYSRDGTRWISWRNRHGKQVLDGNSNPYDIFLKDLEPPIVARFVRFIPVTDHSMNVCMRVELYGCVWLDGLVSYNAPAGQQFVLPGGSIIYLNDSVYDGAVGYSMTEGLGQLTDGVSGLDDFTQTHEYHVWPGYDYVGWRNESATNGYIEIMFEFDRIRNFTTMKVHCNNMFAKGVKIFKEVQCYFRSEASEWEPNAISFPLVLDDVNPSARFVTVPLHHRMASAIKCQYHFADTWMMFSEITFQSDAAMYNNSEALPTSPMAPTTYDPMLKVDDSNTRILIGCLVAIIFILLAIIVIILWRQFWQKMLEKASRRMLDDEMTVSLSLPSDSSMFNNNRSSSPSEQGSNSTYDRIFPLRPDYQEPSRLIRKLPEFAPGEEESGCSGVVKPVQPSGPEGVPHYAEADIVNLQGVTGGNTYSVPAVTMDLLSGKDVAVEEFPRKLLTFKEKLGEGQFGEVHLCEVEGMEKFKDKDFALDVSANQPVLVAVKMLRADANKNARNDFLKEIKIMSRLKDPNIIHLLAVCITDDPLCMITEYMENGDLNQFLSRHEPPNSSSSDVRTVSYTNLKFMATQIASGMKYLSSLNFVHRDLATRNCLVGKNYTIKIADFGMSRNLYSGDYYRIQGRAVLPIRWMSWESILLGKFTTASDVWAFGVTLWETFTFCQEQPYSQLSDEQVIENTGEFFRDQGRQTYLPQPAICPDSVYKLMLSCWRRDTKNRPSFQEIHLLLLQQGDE
T4 sequence (O15075 whole entry): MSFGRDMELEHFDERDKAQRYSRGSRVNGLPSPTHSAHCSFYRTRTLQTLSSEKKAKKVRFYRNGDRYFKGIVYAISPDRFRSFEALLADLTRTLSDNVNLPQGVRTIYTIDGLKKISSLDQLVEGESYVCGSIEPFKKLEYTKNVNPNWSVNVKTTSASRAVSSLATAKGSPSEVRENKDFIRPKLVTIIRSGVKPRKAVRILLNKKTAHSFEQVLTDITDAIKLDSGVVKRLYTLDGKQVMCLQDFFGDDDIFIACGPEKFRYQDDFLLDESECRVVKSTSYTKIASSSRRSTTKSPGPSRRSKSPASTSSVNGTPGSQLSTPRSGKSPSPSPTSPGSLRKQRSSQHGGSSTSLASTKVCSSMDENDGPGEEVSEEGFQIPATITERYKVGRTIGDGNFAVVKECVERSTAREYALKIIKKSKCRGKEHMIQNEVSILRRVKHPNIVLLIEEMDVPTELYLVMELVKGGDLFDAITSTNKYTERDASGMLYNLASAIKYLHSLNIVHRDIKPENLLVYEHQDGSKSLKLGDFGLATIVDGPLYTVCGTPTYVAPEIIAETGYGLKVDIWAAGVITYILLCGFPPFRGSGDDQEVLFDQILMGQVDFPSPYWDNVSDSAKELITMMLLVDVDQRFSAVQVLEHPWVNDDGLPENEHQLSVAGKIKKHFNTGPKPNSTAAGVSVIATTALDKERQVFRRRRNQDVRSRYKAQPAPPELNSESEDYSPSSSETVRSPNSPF
T24 sequence (Q9NQU5 whole entry): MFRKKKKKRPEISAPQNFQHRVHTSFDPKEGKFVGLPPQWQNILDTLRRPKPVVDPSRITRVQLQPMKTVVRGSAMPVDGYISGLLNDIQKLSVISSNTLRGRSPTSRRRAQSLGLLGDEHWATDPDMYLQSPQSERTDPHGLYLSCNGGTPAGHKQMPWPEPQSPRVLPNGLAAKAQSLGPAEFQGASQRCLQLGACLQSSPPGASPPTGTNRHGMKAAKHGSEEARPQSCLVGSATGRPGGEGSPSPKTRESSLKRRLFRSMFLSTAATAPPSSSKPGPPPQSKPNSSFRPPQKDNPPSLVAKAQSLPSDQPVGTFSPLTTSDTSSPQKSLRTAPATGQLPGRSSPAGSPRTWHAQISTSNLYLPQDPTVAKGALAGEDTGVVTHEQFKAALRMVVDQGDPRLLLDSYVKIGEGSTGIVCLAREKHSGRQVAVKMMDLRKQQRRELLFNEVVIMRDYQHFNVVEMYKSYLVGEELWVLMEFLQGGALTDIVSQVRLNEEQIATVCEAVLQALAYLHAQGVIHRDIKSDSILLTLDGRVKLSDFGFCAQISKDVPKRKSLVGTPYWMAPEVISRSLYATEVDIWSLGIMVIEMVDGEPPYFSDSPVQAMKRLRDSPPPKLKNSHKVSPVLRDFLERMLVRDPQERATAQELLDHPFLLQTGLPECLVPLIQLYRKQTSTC
T2 sequence (Q9BXA7 whole entry): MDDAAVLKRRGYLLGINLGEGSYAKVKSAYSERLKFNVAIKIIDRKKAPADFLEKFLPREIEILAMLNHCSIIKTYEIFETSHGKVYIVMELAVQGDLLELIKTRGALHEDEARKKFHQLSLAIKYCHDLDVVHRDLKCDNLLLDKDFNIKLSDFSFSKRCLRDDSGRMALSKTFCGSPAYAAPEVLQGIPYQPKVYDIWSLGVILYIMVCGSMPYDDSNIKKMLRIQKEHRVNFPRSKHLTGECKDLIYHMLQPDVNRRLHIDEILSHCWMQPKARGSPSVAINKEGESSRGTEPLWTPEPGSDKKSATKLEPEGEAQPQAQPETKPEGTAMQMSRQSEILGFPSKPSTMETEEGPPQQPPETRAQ
T14 sequence (Q56UN5 whole entry): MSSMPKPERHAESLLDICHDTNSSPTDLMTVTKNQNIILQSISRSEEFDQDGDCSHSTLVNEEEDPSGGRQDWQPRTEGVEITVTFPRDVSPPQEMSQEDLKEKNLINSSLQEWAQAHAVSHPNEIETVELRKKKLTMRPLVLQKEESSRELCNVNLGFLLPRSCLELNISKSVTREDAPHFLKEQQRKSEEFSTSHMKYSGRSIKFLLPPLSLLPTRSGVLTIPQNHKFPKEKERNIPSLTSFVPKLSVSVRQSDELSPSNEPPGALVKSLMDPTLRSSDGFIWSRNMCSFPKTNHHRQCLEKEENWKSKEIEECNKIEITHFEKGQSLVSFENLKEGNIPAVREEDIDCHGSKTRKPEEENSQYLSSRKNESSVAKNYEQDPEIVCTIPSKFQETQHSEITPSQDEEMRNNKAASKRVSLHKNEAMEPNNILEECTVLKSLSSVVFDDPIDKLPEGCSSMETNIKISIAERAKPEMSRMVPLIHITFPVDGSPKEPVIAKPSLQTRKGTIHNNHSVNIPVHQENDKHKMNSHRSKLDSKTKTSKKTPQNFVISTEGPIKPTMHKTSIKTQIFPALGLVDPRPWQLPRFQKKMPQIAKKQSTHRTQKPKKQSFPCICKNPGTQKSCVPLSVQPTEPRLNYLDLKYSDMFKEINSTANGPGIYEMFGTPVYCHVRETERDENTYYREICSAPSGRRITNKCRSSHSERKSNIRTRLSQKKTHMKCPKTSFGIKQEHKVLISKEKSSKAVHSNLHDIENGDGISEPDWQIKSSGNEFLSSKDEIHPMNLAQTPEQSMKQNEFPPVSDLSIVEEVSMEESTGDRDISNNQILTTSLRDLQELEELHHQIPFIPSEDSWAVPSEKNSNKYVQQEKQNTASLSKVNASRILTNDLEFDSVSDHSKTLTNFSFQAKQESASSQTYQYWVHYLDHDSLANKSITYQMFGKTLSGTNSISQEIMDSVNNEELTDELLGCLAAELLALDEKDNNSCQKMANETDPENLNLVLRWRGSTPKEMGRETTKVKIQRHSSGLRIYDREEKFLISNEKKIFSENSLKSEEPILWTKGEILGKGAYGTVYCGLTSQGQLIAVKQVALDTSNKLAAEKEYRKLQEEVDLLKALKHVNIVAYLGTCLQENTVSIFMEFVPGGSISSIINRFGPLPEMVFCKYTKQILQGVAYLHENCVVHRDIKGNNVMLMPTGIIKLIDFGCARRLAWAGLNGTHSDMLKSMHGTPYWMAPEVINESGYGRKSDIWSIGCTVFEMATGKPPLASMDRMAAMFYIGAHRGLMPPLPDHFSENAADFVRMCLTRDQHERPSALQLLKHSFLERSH
T15 sequence (Q00526 whole entry): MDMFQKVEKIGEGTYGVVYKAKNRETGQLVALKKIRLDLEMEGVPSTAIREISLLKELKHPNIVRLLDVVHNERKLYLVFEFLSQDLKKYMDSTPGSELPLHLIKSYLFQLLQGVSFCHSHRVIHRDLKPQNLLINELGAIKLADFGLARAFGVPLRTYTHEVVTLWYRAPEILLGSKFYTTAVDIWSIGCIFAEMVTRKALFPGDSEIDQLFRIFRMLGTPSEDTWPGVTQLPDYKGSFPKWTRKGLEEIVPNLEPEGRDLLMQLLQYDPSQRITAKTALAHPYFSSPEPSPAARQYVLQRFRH

O=C1Nc2c(cc([N+](=O)[O-])c3c2CCCC3)C1=NO [Compound 5d, 3-(Hydroxyimino)-5-nitro-1,3,6,7,8,9-hexahydro-2H-benzo[g]indol-2-one] showed an inhibition at 10 µM (WNK1) of 12%, an inhibition at 10 µM (TSSK1B) of 0% and an inhibition at 10 µM (NEK7) of 26%. The inhibition at 10 µM (DCAMKL1) was 29%, the inhibition at 10 µM (EPHB3) was 0% and the inhibition at 10 µM (MKK7) was 0%. For the same compound, the “Inhib. (%)” value (MKK7; 10 μM) was “inactive”, the inhibition at 10 µM (ULK2) was 52% and the inhibition at 10 µM (IKK-β) was 50%. The inhibition at 10 µM (NEK6) was 17%, the inhibition at 10 µM (TEC) was 9% and the inhibition at 10 µM (ACVR2B) was 25%. The inhibition at 10 µM (JAK2 (JH1domain-cat.)) was 42%, the inhibition at 10 µM (ERN1) was 29% and the inhibition at 10 µM (MAP3K19) was 95.8%. For the same compound, the inhibition at 10 µM (CDK3) was 13%, the inhibition at 10 µM (MTOR) was 56% and the inhibition at 10 µM (CAMKK1) was 9%. The inhibition at 10 µM (FLT3 (R834Q)) was 10%, the inhibition at 10 µM (JNK3) was 52% and the inhibition at 10 µM (MAP4K4) was 47%. For the same compound, the inhibition at 10 µM (MAP4K3) was 11%, the inhibition at 10 µM (KIT-autoinhibited) was 0% and the inhibition at 10 µM (PIK3CA (E545A)) was 30%. For the same compound, the inhibition at 10 µM (PAK6) was 39%, the inhibition at 10 µM (CSF1R-autoinhibited) was 37% and the inhibition at 10 µM (ZAK) was 14%. It also gave an inhibition at 10 µM (AKT3) of 9%, an inhibition at 10 µM (ABL1 (Q252H)-non-P) of 55% and an inhibition at 10 µM (SLK) of 63%. It also gave an inhibition at 10 µM (DCAMKL3) of 10%, an inhibition at 10 µM (BMPR1A) of 18% and an inhibition at 10 µM (PIK3CA) of 0%. It also gave an inhibition at 10 µM (DDR2) of 0%, an inhibition at 10 µM (CDKL1) of 42% and an inhibition at 10 µM (ARK5) of 24%. The inhibition at 10 µM [1] was 36%, the inhibition at 10 µM (NDR2) was 13% and the inhibition at 10 µM (PRKCD) was 10%. The inhibition at 10 µM (PRKCH) was 0%.
